In the data set the target is ATP-dependent translocase ABCB1 (Homo sapiens, UniProt P08183). Briefly: TP_TRANSPORTER: increase in intracellular accumulation of rhodamine 6G in […] cell. It is filed as functional, cell-based.
ATP-dependent translocase ABCB1, sequence (P08183 whole entry): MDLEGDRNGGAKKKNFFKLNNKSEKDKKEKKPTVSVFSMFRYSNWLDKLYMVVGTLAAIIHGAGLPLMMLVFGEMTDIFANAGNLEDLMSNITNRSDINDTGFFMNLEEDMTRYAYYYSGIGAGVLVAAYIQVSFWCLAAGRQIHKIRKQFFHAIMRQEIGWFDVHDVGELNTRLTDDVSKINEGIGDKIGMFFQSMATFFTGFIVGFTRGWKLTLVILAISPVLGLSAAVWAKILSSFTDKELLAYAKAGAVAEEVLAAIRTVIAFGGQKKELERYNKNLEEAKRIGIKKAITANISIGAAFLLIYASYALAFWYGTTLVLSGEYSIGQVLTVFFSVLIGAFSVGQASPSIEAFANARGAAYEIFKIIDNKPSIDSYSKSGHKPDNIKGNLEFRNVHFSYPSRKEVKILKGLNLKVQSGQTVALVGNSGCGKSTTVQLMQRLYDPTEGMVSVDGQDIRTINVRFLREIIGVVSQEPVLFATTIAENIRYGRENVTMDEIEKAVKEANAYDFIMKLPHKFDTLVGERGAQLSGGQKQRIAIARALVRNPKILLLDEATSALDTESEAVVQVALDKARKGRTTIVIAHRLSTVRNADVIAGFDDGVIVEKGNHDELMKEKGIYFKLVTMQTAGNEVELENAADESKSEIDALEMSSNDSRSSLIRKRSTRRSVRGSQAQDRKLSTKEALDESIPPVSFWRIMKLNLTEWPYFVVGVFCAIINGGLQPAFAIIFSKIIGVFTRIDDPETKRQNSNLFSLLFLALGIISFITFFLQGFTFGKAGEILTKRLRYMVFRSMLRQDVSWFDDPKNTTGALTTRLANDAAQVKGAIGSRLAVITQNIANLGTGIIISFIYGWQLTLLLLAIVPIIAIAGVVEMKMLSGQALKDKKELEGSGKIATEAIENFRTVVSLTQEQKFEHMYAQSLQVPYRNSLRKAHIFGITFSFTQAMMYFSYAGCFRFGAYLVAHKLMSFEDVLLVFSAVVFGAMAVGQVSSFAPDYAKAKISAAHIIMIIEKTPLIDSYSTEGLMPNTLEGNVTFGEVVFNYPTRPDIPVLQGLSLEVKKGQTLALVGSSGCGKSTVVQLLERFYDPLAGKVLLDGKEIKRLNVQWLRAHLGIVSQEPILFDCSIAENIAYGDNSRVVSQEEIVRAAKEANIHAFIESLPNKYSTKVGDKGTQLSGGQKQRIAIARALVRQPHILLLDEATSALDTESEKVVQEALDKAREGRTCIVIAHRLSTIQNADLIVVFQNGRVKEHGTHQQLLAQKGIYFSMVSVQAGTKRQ

In the case of STEM BARK OF ANNICKIA KUMMERIAE EXTRACT, the Activity result is “inhibitor [+]”.

The values are drawn from ChEMBL document CHEMBL2074043, “Investigation of fractions present in the stem bark of Annickia kummeriae on their P-glycoprotein inhibitory pump activity” (Phytother Res, 2004).
